In ChEMBL document CHEMBL1134452, “Novel inhibitors of mitochondrial respiratory chain: endoperoxides from the marine tunicate Stolonica socialis” (J Med Chem, 2001):

Assay: Compound was tested for inhibitory activity on mitochondrial electron transport using submitochondrial particles (SMP) from beef heart.
Type: functional, Bos taurus

## C=CCC/C=C/C=C/CCCCCC[C@H]1CC[C@H]([C@@H]2CC[C@@H](CC(=O)OC)OO2)O1
  IC50: < 1000 nM

## C=CCC/C=C/C=C/CCCCCC[C@@H]1CC[C@@H]([C@@H]2CC[C@@H](CC(=O)OC)OO2)O1
  IC50: < 1000 nM
